Assays:
Format in all cases: functional, cell-based
[1] = test system: MCF7; assay: Cytotoxicity against human MCF7 cells incubated for 48 hrs by MTT assay; conditions: MCF7, 48 h
[2] = test system: A549; assay: Cytotoxicity against human A549 cells incubated for 48 hrs by MTT assay; conditions: A549, 48 h
[3] = test system: KB; assay: Cytotoxicity against human KB cells incubated for 48 hrs by MTT assay

Row | Structure (SMILES) | IC50 [1] [µM] | IC50 [2] [µM] | IC50 [3] [µM]
1 | COc1cc(O)c2c(c1)C(=O)c1c(coc1[C@H](C)O)C2=O | > 40 | > 40 | > 40
2 | COc1cc(O)c2c(c1)C(=O)c1cc(C)ncc1C2=O | > 40 | > 40 | > 40
3 | COc1cc(O)c2c(c1)C(=O)C1=C(COC(C)(O)C1)C2=O (stereo not given) | > 40 | > 40 | > 40
4 | COc1cc(O)c2c(c1)C(=O)C1=C(C2=O)[C@@](C)(OC)OCC1 | 11.6 | 28.2 | 16.6
5 | COc1cc(O)c2c(c1)[C@@H](O)[C@@H]1C[C@@H](C)OC[C@H]1C2=O | > 40 | > 40 | > 40
6 | COC1=CC(=O)[C@H](O)[C@H](C)C12Oc1cccc3cccc(c13)O2 | > 40 | > 40 | > 40
7 | COc1cc(O)c2c(c1)[C@@H]1O[C@]3(C)C[C@@H]1[C@@H](CO3)C2=O | > 40 | > 40 | > 40
8 | COc1cc(O)c2c(c1)C(=O)C1=C(C2=O)[C@](C)(OC)OCC1 | 11.6 | 28.2 | 16.6
9 | COc1cc(C)c(Cc2c(C)cc(O)cc2OC)c(O)c1 | > 40 | > 40 | > 40
10 | COc1cc(O)c2c(c1)[C@@H](O)[C@H]1C[C@H](C)OC=C1C2=O | > 40 | > 40 | > 40

Reference: ChEMBL document CHEMBL4627395, “Cytotoxic Heptaketides from the Endolichenic Fungus Ulospora bilgramii” (J Nat Prod, 2020)
